Read-outs that look alike come from different tables or passages of the source.
What was measured:
[1] = In-clinic pharmacokinetic study: plasma pharmacokinetics and dose proportionality; format: in vivo, human; conditions: 100 mg to 400 mg administered as 2 divided doses
Method: The primary objective of this study was to assess the pharmacokinetics and dose proportionality of lixivaptan over the dose range targeted for clinical use (e.g., 100 to 400 mg daily) using unit doses of 50 mg and multiples thereof given twice daily for 7.5 days.
Subjects received lixivaptan at total daily doses of 100 mg, 200 mg, or 400 mg (administered as 50, 100, and 200 mg Q12H). Subjects were to be enrolled into the study in two cohorts of 30 subjects, but actual cohort numbers were 23 and 34 subjects. Of the 57 subjects enrolled in the study, 27 were female (47.4%) and 30 were male (52.6%). The majority of subjects were White (35/57, 61.4%) and of Hispanic or Latino ethnicity (46/57, 80.7%). The overall mean age of subjects in the study was 33.6 (8.31) years, and the overall mean body mass index for subjects was 26.2 (3.79). There were to be approximately 20 subjects enrolled per dose level. An approximately equal number of males and females were enrolled at each dose level such that neither gender was represented by fewer than 8 subjects. The starting date for each cohort subjects was staggered by 7 days for logistical purposes. Screening evaluations were performed within 28 days prior to Day 1. […]

cAMP = experiment: Cyclic AMP content of whole kidneys of PCK rats (Direct cAMP ELISA); format: in vivo, rat; conditions: for cAMP: whole kidney
Method: Experimental animals and study design. PCK rats were divided into control and treatment groups at four weeks of age (n=59, ˜10 animals per treatment group and gender). Lixivaptan was dissolved in DMSO and added to ground rodent chow (Regrind Labdiet 5053) at 0.5% or 1.0% concentration (w/w) by homogenous mixing, whereas control animals received the same diet without lixivaptan. Animals were exposed to control- or lixivaptan-diet for eight weeks and were sacrificed at twelve weeks of age.
Experimental Protocol. Twenty-four hour urine outputs in metabolic cages were collected twice at 6 and 9 weeks of age (Study week 3 and 6, respectively). At the end of the dosing period, the animals were weighed and anesthetized with ketamine 90 mg/kg and xylazine 10 mg/kg, IP. Blood samples were obtained by cardiac puncture for determination of plasma electrolytes, creatinine and plasma urea levels. The right kidney and part of the liver were placed into pre-weighed vials containing 10% formaldehyde in phosphate buffer (pH 7.4). The tissues were embedded in paraffin for histological studies. The left kidneys were immediately frozen in liquid nitrogen for determination of cAMP.
The kidneys were weighed and ground to fine powder under liquid nitrogen in a stainless steel mortar and homogenized in 10 volumes of 0.1M HCl. The protein concentration was measured by using BCA Protein Assay Kit (Pierce, Ill.). After centrifugation at 600 g for 10 min, the supernatant was further diluted in 0.1M HCl and run directly in the assay or stored frozen for later analysis. The cAMP content was assessed by Direct cAMP ELISA kit, according to the manufacturer's instructions (Enzo Life Sciences, Inc. Farmingdale, N.Y.). Samples were taken in triplicate. The results were expressed in pmol/mg of protein.

[2] = Single 100 mg oral dose study in ESRD and normal renal function subjects: pharmacokinetics and tolerability; format: in vivo, human; conditions: for AUC(0-inf) / AUC(0-t) / Cmax / Vd/F / half-life: po, 100 mg; for Vd/F: read-out: VZ/F Mean; for half-life: read-out: t1/2 Median (converted)
Method: A clinical study was undertaken to determine the pharmacokinetics (PK) of lixivaptan in renally impaired subjects. In this study, the PK of lixivaptan following a single 100 mg oral dose of lixivaptan was evaluated in subjects with end-stage renal disease (ESRD) and control subjects with normal renal function. Pharmacodynamic (PD) evaluations, including vasopressin concentration, serum sodium concentration, urine volume, and urine osmolality were assessed. Overall total lixivaptan exposure was, on average, 32 and 31% lower in ESRD subjects compared to subjects with normal renal function, as assessed by AUC0-∞ and AUC0-t, respectively. Similarly, peak total lixivaptan concentrations were, on average, 31% lower in subjects with ESRD.

[3] = human, in vivo, single 100 mg oral dose, ESRD
[4] = human, in vivo, single 100 mg oral dose, Normal
[5] = single 100 mg oral dose, Normal

With `Cc1ccc(F)cc1C(=O)Nc1ccc(C(=O)N2Cc3cccn3Cc3ccccc32)c(Cl)c1` [Lixivaptan, 5-fluoro-2-methyl-N-[4-(5H-pyrrolo[2,1-C] [1,4]benzodiazepin-10(11H)-ylcarbonyl)-3-chlorophenyl]benzamide] the “dose proportionality of pharmacokinetic parameters (Cmax, AUC(0-12))” value [1] was “proportional kinetics”, the “reduction in kidney cAMP levels” value (cAMP; PCK rats, 0.5% lixivaptan, compared to control) was 23% and the cAMP (cAMP; PCK rats F, 0.5% Lixivaptan) was 15.0 ± 4.6 pmol/mg protein. For the same compound, the cAMP (cAMP; PCK rats F, 1.0% Lixivaptan) was 23.6 ± 8.1 pmol/mg protein, the cAMP (cAMP; PCK rats M, 0.5% Lixivaptan) was 16.5 ± 5.1 pmol/mg protein and the cAMP (cAMP; PCK rats M, 1.0% Lixivaptan) was 24.0 ± 12.0 pmol/mg protein. For the same compound, the “tolerability of single doses” value ([2]; both groups (normal, ESRD)) was “well tolerated”, the AUC(0-inf) [2, 3] was 856 ng·h/mL and the AUC(0-t) [2, 3] was 809 ng·h/mL. For the same compound, the Cmax [2, 3] was 238 ng/mL, the Vd/F [2, 3] was 2740 L and the half-life [2, 3] was 13.3 h. The AUC(0-t) [2, 4] was 1200 ng·h/mL, the Cmax [2, 4] was 383 ng/mL and the AUC(0-inf) ([2]; human, in vivo, single 100 mg oral dose, Normal renal function) was 1290 ng·h/mL. The Vd/F [2, 4] was 1750 L, the half-life [2, 4] was 12 h and the Tmax ([2]; human, in vivo, single 100 mg oral dose, Normal, read-out: tmax Median) was 1 h. The “peak total lixivaptan concentrations lower in subjects with ESRD” value ([2]; single 100 mg oral dose) was 31%, the “total lixivaptan exposure (AUC0-t) lower in ESRD subjects compared to normal renal function” value ([2]; single 100 mg oral dose) was 31% and the “total lixivaptan exposure (AUC0-∞) lower in ESRD subjects compared to normal renal function” value ([2]; single 100 mg oral dose) was 32%. For the same compound, the “CL/F Mean” value ([2]; single 100 mg oral dose, ESRD) was 137 L/h, the “Lambdaz Median” value ([2]; single 100 mg oral dose, ESRD) was 0.05752 h⁻¹ and the “CL/F Mean” value [2, 5] was 94.2 L/h. For the same compound, the “Lambdaz Median” value [2, 5] was 0.06035 h⁻¹.
